Assay results reported in PMC7811140 (iScience, 2020).
Entries after “also recorded” stand apart in the source; their conditions may differ. One block for each molecule: values may come before it.

How the values were obtained:
KDM4B [1] = molecular target: T1, KDM4B (Homo sapiens, UniProt O94953); test: biochemical; settings: for inhibition at 15 µM: read-out: %Inhibition of KDM4B; for %Inhibition of KDM4B: at 15 μM, screening; for KDM4B inhibitory activity (in words): Figure S2
T1 sequence (O94953 1-348): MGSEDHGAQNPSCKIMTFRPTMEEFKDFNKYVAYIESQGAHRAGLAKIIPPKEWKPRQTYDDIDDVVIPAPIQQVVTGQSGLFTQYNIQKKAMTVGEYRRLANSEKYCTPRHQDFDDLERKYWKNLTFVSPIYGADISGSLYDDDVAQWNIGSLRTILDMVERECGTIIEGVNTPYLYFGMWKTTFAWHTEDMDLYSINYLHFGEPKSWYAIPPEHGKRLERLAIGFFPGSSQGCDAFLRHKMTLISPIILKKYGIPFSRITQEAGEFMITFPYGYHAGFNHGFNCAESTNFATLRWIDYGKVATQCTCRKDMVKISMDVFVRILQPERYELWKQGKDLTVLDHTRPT

Rh30 cells = test: Crystal violet staining proliferation assay; assay type: cell-based; settings: 5 days, at the concentrations that hit the targets
PAX3-FOXO1 = test: Western blot of PAX3-FOXO1 in Rh30 cells; assay type: cell-based; settings: 24 hr
eRMS xenograft = settings: ref Kang et al., 2012; Lock et al., 2013; cited from earlier work
aRMS xenograft = settings: ref Kang et al., 2012; Lock et al., 2013; cited from earlier work
KDM4C = molecular target: T2, KDM4C (Homo sapiens, UniProt Q9H3R0); test: ALPHA Screen demethylation assay; assay type: biochemical; settings: IC50 (μM) KDM4C
T2 sequence (Q9H3R0 1-1056): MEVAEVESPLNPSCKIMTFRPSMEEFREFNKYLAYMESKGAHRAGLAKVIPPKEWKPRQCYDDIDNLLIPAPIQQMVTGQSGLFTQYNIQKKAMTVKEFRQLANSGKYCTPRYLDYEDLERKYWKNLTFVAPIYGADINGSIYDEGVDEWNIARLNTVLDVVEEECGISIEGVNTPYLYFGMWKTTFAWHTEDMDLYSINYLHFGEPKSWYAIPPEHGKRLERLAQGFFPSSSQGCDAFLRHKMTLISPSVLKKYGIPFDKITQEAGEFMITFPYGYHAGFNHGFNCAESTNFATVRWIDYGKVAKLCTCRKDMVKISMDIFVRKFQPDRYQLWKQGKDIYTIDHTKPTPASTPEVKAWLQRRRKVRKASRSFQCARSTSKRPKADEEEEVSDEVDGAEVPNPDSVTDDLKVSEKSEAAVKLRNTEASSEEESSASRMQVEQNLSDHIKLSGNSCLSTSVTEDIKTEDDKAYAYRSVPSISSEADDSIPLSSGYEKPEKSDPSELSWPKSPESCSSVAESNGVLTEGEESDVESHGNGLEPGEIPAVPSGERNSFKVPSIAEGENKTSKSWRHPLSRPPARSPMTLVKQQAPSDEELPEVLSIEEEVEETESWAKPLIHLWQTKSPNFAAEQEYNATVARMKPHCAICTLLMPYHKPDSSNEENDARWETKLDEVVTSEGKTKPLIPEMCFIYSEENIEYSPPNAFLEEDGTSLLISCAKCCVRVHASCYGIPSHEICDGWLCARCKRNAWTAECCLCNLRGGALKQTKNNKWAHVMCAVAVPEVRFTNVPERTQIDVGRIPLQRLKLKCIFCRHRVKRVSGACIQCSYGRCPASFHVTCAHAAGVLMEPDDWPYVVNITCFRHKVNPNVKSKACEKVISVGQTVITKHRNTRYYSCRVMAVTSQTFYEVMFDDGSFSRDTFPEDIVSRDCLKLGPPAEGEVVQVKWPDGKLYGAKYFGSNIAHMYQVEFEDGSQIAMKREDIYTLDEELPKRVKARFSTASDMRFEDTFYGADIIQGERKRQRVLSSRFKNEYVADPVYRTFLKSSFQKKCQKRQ

KDM5A = KDM5A (Homo sapiens, UniProt P29375); test: ALPHA Screen demethylation assay; assay type: biochemical; settings: IC50 (μM) KDM5A
[2] = tested on: H3K9me3 and H3K36me3 peaks; test: ChIP-seq of H3K9me3 and H3K36me3 in Rh30 cells; assay type: cell-based, human; settings: 1μM, 24 hr
[3] = tested on: KDM4 substrates H3K9me3 and H3K36me3; test: Western blot of H3K9me3 and H3K36me3 in Rh30 cells; assay type: cell-based; settings: 24 hr
KDM4B [4] = molecular target: T3, KDM4B (Homo sapiens, UniProt O94953); test: Western blot of histone marks in 293T cells expressing KDM4B; assay type: cell-based; settings: treated 24 hours
T3 sequence (O94953 1-1096): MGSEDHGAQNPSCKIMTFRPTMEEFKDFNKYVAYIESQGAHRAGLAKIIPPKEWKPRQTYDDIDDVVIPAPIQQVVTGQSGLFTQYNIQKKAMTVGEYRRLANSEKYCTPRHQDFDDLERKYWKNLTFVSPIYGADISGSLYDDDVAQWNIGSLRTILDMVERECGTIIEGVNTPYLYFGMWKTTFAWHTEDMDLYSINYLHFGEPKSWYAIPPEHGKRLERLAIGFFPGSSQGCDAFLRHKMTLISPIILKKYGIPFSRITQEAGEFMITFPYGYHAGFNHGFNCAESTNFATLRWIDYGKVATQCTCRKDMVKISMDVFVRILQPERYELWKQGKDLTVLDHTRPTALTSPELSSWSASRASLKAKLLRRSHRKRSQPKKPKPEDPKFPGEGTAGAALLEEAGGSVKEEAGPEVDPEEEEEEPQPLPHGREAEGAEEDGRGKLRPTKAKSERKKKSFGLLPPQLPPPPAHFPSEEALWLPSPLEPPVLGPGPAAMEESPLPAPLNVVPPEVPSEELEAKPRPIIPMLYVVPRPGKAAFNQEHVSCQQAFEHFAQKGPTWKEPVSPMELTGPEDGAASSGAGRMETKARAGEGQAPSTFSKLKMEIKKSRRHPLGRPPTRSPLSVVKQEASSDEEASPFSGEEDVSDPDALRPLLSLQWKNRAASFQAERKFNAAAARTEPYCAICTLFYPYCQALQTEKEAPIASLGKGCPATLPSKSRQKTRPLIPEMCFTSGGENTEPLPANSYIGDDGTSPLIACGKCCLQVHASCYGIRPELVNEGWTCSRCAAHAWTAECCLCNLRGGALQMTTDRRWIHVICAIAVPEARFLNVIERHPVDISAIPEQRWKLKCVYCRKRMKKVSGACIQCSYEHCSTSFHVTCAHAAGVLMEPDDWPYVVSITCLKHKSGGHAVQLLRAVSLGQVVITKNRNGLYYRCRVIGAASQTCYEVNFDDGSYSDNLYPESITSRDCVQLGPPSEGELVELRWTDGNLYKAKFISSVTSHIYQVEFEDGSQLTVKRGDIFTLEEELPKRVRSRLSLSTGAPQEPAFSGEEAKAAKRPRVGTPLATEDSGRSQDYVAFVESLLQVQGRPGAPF

KDM4B [5] = molecular target: T3, KDM4B; test: Western blot of histone methyl marks in U2OS cells expressing KDM4B; settings: 1uM, not on H3K4me3

Sequence of KDM5A (P29375 whole entry): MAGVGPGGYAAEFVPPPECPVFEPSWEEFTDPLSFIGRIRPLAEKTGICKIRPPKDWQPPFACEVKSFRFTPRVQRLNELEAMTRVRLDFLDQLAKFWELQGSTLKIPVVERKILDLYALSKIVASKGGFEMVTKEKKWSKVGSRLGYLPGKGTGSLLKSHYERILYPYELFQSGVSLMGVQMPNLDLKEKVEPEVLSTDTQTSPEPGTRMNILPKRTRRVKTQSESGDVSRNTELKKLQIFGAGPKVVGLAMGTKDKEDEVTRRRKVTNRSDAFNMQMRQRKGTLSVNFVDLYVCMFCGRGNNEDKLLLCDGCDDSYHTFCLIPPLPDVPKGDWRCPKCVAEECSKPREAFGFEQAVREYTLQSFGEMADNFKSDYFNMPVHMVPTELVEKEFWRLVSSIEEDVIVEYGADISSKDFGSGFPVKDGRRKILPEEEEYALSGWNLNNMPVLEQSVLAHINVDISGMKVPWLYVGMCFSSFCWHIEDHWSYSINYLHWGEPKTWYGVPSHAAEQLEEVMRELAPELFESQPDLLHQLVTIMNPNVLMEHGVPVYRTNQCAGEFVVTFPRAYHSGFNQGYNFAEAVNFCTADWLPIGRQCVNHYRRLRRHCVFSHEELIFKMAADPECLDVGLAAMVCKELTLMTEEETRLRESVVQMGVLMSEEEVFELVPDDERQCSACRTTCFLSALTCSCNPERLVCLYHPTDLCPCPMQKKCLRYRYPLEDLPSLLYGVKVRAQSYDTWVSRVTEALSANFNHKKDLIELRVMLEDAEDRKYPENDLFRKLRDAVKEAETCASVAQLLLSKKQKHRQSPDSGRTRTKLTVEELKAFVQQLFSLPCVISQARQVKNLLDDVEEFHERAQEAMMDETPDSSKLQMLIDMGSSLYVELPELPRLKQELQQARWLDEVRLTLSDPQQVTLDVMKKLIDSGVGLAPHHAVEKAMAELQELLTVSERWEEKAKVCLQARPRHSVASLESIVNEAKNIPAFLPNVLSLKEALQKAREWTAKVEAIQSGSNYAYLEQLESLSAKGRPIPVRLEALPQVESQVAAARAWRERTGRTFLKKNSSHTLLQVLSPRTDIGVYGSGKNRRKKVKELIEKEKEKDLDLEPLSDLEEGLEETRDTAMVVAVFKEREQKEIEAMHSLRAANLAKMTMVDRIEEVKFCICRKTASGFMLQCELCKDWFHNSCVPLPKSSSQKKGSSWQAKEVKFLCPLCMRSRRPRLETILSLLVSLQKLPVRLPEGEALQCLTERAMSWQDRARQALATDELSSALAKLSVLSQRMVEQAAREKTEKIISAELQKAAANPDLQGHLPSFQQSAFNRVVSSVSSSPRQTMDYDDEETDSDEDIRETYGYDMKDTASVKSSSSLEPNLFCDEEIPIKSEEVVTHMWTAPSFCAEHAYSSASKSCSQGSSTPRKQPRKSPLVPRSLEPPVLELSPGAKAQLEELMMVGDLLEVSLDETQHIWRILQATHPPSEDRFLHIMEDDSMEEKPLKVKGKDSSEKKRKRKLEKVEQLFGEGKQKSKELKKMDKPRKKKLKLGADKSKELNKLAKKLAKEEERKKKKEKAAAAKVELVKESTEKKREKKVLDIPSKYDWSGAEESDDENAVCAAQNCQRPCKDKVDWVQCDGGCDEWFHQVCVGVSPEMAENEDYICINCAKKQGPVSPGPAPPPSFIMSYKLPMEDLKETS

%Inhibition of KDM4B (KDM4B [1]): < 15%
SMILES: CCc1c(O)cc(O)c(C(=O)c2ccc(OCCN3CCOCC3)c(OC)c2)c1CC(=O)N(CCOC)CCOC.Cl [KW2478]

inhibition at 15 µM (KDM4B [1]): < 15%
SMILES: CC(C)c1cc(C(=O)N2Cc3ccc(CN4CCN(C)CC4)cc3C2)c(O)cc1O [AT13387]
PAX3-FOXO1 expression (protein) (PAX3-FOXO1): reduced the expression of PAX3-FOXO1
eRMS xenograft growth (eRMS xenograft): no effect on either aRMS or eRMS xenograft growth
KDM4B inhibitory activity (in words) (KDM4B [1]): minimal effect on KDM4B activity; also recorded: did not inhibit KDM4B activity
aRMS xenograft growth (aRMS xenograft): no effect

KDM4B inhibitory activity (in words) (KDM4B [1]): did not inhibit KDM4B activity
inhibition at 15 µM (KDM4B [1]): < 15%
SMILES: CC(C)c1cc(-c2n[nH]c(=O)n2-c2ccc3c(ccn3C)c2)c(O)cc1O [Ganetespib]
eRMS xenograft growth (eRMS xenograft): no effect on either aRMS or eRMS xenograft growth
aRMS xenograft growth (aRMS xenograft): no effect

inhibition at 15 µM (KDM4B [1]): < 15%
SMILES: CCNC(=O)c1noc(-c2cc(C(C)C)c(O)cc2O)c1-c1ccc(CN2CCOCC2)cc1 [NVP-AUY922]

The remaining lines, values behind:

SMILES: CN(NC(=O)CC(=O)NN(C)C(=S)c1ccccc1)C(=S)c1ccccc1 [STA-4783]
inhibition at 15 µM (KDM4B [1]): < 15%

SMILES: CCOC(=O)CCNc1cc(N2CCc3ccccc3CC2)nc(-c2ccccn2)n1 [GSK-J4]
anti-proliferative effect (Rh30 cells): no anti-proliferative effect

SMILES: CC[C@@H](C)Nc1cc(C(=O)N[C@H]2C[C@H]3CC[C@@H](C2)N3c2ccc(C(=O)C3CC3)cn2)c(C)cc1C(N)=O [XL888]
%Inhibition of KDM4B (KDM4B [1]): < 15%

SMILES: COC1=C2C[C@@H](C)C[C@H](OC)[C@H](O)[C@@H](C)/C=C(\C)[C@H](OC(N)=O)[C@@H](OC)/C=C\C=C(/C)C(=O)NC(=CC1=O)C2=O [geldanamycin]
IC50 (KDM4C): < 1 µM
PAX3-FOXO1 expression (protein) (PAX3-FOXO1): reduced
IC50 (KDM5A): < 1 µM
H3K36me3 peaks decreased [2]: 213 peaks
H3K36me3 peaks increased [2]: 1430 peaks
peaks of H3K9me3 induced ([2]; p < 0.05, logFC = 0.5): Four thousand four hundred six
H3K9me3 and H3K36me3 levels [3]: induced an increase of H3K9me3 and H3K36me3
KDM4B activity in demethylating H3K9me3 (KDM4B [4]): greatly inhibited KDM4B activity
KDM4B catalytic activity on its H3K9me3 and H3K36me3 substrates (KDM4B [5]): blocked KDM4B catalytic activity

SMILES: CC1(C)CC(=O)c2c(C(F)(F)F)nn(-c3ccc(C(N)=O)c(N[C@H]4CC[C@H](OC(=O)CN)CC4)c3)c2C1 [SNX-5422]
inhibition at 15 µM (KDM4B [1]): < 15%

SMILES: CCOC(=O)c1ccnc(CNCC(=O)N(CC)CCN(C)C)c1 [KDM5-C70]
anti-proliferative effect (Rh30 cells): no anti-proliferative effect

SMILES: Cc1cc(C2CCCCC2)n(O)c(=O)c1 [ciclopirox]
KDM4B activity in demethylating H3K9me3 (KDM4B [4]): greatly inhibited KDM4B activity
